In PMC4193892, “3-O-Galloylated Procyanidins from Rumex acetosa L. Inhibit the Attachment of Influenza A Virus” (PLoS ONE, 2014):
Like-named read-outs stand apart in the source and are kept apart here.

What was measured:
[1] = in vitro
[2] = tested on: IAV(H1N1)pdm09 isolate I1; test: microbe, parasite or virus in culture; type: cell-based, influenza A virus; details: for inhibition at 2 µM / inhibition at 20 µM / inhibition at 200 µM: H1N1, 48 h, read-out: anti-IAV activity
[3] = tested on: MDCK II cells; test: cells; details: Canis lupus familiaris, 48 h, read-out: cell vitality
[4] = tested on: chicken erythrocytes; test: Direct agglutination of erythrocytes in the absence of IAV; type: cell-based; details: minimal concentration
Procedure: Twofold serial dilutions (25 µL) of test compounds in PBS and 4 hemagglutinating units (HU) of IAV (25 µl) were mixed carefully in 96-well plates with U-shaped bottom (Thermo Fisher Scientific Nunc, Schwerte, Germany). Plates were shaken for 5 min. and incubated for 25 min. at room temperature (RT). 50 µL of a 1.5% suspension of newborn chicken erythrocytes (RBC) in PBS (Labor Dr. Merk & Kollegen, Ochsenhausen, Germany) were added, and plates shaken again. Assays were read following a 2 h incubation period at RT, and the minimum inhibitory concentration (MIC), defined as the highest test compound dilution showing complete inhibition of the agglutination of erythrocytes, was determined. In every assay, a test compound control (compound plus RBC without addition of IAV), and erythrocyte controls (A: IAV plus RBC, without addition of test compound; B: RBC, without addition of test compound or IAV) were included.

[5] = tested on: IAV(H1N1)pdm09 I1; type: cell-based, influenza A virus

SMILES: Oc1cc(O)c2c(c1)O[C@H](c1ccc(O)c(O)c1)[C@H](O)[C@H]2c1c(O)cc(O)c2c1O[C@H](c1ccc(O)c(O)c1)[C@H](O)[C@H]2c1c(O)cc(O)c2c1O[C@H](c1ccc(O)c(O)c1)[C@H](O)[C@H]2c1c(O)cc(O)c2c1O[C@H](c1ccc(O)c(O)c1)[C@H](O)C2 [compound 11, epicatechin-(4β→8)-epicatechin-(4β→8)-epicatechin-(4β→8)-epicatechin]
- CC50 at 48 h ([1]; dog): > 200 µM
- IC50 ([2]; Influenza A virus, H1N1): ≤ 225 µM
- inhibition at 2 µM ([2]; Influenza A virus): 0%
- inhibition at 20 µM ([2]; Influenza A virus): 1%
- inhibition at 200 µM ([2]; Influenza A virus): 44 ± 7%
- viability at 2 µM [3]: 101 ± 6%
- viability at 20 µM [3]: 86 ± 8%
- viability at 200 µM [3]: 54 ± 9%

SMILES: O=C(O[C@@H]1Cc2c(O)cc(O)cc2O[C@@H]1c1ccc(O)c(O)c1)c1cc(O)c(O)c(O)c1 [compound 5, epicatechin-3-O-gallate]
- CC50 at 48 h [1]: 175 µM
- IC50 ([2]; Influenza A virus, H1N1): ≤ 258 µM
- inhibition at 2 µM ([2]; Influenza A virus): 0%
- inhibition at 20 µM ([2]; Influenza A virus): 1%
- inhibition at 200 µM ([2]; Influenza A virus): 38 ± 2%
- viability at 2 µM [3]: 107 ± 3%
- viability at 20 µM [3]: 106 ± 4%
- viability at 200 µM [3]: 41 ± 2%

SMILES: Oc1cccc(O)c1O [compound 18, pyrogallol, reference compound]
- CC50 at 48 h ([1]; dog): 176 µM
- IC50 ([2]; Influenza A virus, H1N1): ≤ 241 µM
- inhibition at 2 µM ([2]; Influenza A virus): 0%
- inhibition at 20 µM ([2]; Influenza A virus): 7 ± 3%
- inhibition at 200 µM ([2]; Influenza A virus): 42 ± 1%
- viability at 2 µM [3]: 98 ± 4%
- viability at 20 µM [3]: 96 ± 1%
- viability at 200 µM [3]: 43 ± 1%

SMILES: Oc1cc(O)c2c(c1)O[C@H](c1ccc(O)c(O)c1)[C@@H](O)C2 [compound 1, (+)-catechin monohydrate]
- CC50 at 48 h [1]: > 200 µM
- IC50 ([2]; Influenza A virus, H1N1): > 200 µM
- inhibition at 2 µM ([2]; Influenza A virus): 0%
- inhibition at 20 µM ([2]; Influenza A virus): 0%
- inhibition at 200 µM ([2]; Influenza A virus): 0%
- viability at 2 µM [3]: 105 ± 3%
- viability at 20 µM [3]: 102 ± 5%
- viability at 200 µM [3]: 119 ± 9%

SMILES: O=C(O[C@@H]1O[C@@H]2COC(=O)c3cc(O)c(O)c(O)c3-c3c(cc(O)c(O)c3O)C(=O)O[C@H]([C@H]1O)[C@@H]2O)c1cc(O)c(O)c(O)c1 [compound 14, corilagin, reference compound]
- CC50 at 48 h ([1]; dog): 120 µM
- IC50 [2]: uncalc. ^3
- inhibition at 2 µM ([2]; Influenza A virus): 0%
- inhibition at 20 µM ([2]; Influenza A virus): 1%
- inhibition at 200 µM ([2]; Influenza A virus): 3 ± 2%
- viability at 2 µM [3]: 101 ± 1%
- viability at 20 µM [3]: 103 ± 1%
- viability at 200 µM [3]: 8 ± 1%

SMILES: Oc1cc(O)c2c(c1)O[C@H](c1ccc(O)c(O)c1)[C@H](O)[C@H]2c1c(O)cc(O)c2c1O[C@H](c1ccc(O)c(O)c1)[C@H](O)C2 [compound 7, epicatechin-(4β→8)-epicatechin]
- CC50 at 48 h ([1]; dog): > 200 µM
- IC50 ([2]; Influenza A virus, H1N1): > 200 µM
- inhibition at 2 µM ([2]; Influenza A virus): 0%
- inhibition at 20 µM ([2]; Influenza A virus): 0%
- inhibition at 200 µM ([2]; Influenza A virus): 1 ± 1%
- viability at 2 µM [3]: 107 ± 6%
- viability at 20 µM [3]: 108 ± 9%
- viability at 200 µM [3]: 117 ± 8%

SMILES: O=C(O[C@@H]1Cc2c(O)cc(O)cc2O[C@@H]1c1cc(O)c(O)c(O)c1)c1cc(O)c(O)c(O)c1 [compound 6, reference compound]
- direct agglutination [4]: 156 µM
- CC50 at 48 h ([1]; dog): > 200 µM
- IC50 ([2]; Influenza A virus, H1N1): ≤ 12 µM
- inhibition at 2 µM ([2]; Influenza A virus): 1 ± 1%
- inhibition at 20 µM ([2]; Influenza A virus): 87 ± 25%
- inhibition at 200 µM ([2]; Influenza A virus): 60 ± 7%
- viability at 2 µM [3]: 103 ± 4%
- viability at 20 µM [3]: 92 ± 7%
- viability at 200 µM [3]: 62 ± 9%
- MIC [5]: no inhibitory effect

SMILES: Oc1cc(O)c2c(c1)O[C@H](c1ccc(O)c(O)c1)[C@H](O)[C@H]2c1c(O)cc(O)c2c1O[C@H](c1ccc(O)c(O)c1)[C@H](O)[C@H]2c1c(O)cc(O)c2c1O[C@H](c1ccc(O)c(O)c1)[C@H](O)C2 [compound 10, epicatechin-(4β→8)-epicatechin-(4β→8)-epicatechin]
- CC50 at 48 h ([1]; dog): > 200 µM
- IC50 ([2]; Influenza A virus, H1N1): 123 µM
- inhibition at 2 µM ([2]; Influenza A virus): 0%
- inhibition at 20 µM ([2]; Influenza A virus): 0%
- inhibition at 200 µM ([2]; Influenza A virus): 87 ± 5%
- viability at 2 µM [3]: 104 ± 2%
- viability at 20 µM [3]: 99 ± 4%
- viability at 200 µM [3]: 122 ± 6%

SMILES: Oc1cc(O)c2c(c1)O[C@H](c1cc(O)c(O)c(O)c1)[C@@H](O)C2 [compound 3, gallocatechin]
- CC50 at 48 h [1]: > 200 µM
- IC50 ([2]; Influenza A virus, H1N1): ≤ 156 µM
- inhibition at 2 µM ([2]; Influenza A virus): 0%
- inhibition at 20 µM ([2]; Influenza A virus): 0%
- inhibition at 200 µM ([2]; Influenza A virus): 66 ± 5%
- viability at 2 µM [3]: 106 ± 5%
- viability at 20 µM [3]: 108 ± 1%
- viability at 200 µM [3]: 75 ± 17%
